Patent US20260007133A1, “HERBICIDAL COMPOSITION COMPRISING AZINE COMPOUNDS” (BASF SE, priority 2022, published 2026)
Like-named read-outs stand apart in the source and are kept apart here.

Columns and labels:
Format in all cases: in vivo
Echinochloa crus-galli [1] = test: Greenhouse pre-emergence (PRE) herbicidal test on ECHCG; conditions: Echinochloa crus-galli, pre-emergence, 480 h; PRE, 2 gai/ha, 20 DAT
Euphorbia heterophylla = test: Greenhouse pre-emergence (PRE) herbicidal test on EPHHL; conditions: Euphorbia heterophylla, pre-emergence
Method in brief: (§1)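 Seeds were sown per species in loamy sand with ~3.0% humus, treated pre-emergence and kept at 10-25° C or 20-35° C depending on species. Damage was scored at 20 days after treatment on a 0-100 scale (100 = no emergence or complete destruction of above-ground parts, 0 = no damage).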

Geranium pusillum = test: Greenhouse pre-emergence (PRE) herbicidal test on GERPU; conditions: Geranium pusillum, pre-emergence, use rate 8 gai/ha
Method in brief: (§2)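 Seeds sown in loamy sand (~3.0% humus); compounds in water applied by fine nozzles directly after sowing, then pots irrigated and hooded until rooting. Plants held at 10-25° C or 20-35° C by species; damage scored 0-100 (100 = no emergence/complete destruction) 20 days after treatment.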

Lolium multiflorum = test: Greenhouse pre-emergence (PRE) herbicidal test on LOLMU
Method in brief: as §1

Setaria viridis = test: Greenhouse pre-emergence (PRE) herbicidal test on SETVI; conditions: Setaria viridis, pre-emergence
Method in brief: as §2

Amaranthus retroflexus = test: Greenhouse post-emergence (POST) herbicidal test on AMARE; conditions: Amaranthus retroflexus, post-emergence
Method in brief: (§3)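 Injury was rated visually on a 0–100 scale, where 0 is normal growth and 100 is complete above-ground kill, 20 days after treatment. Test plants at 3–15 cm height received a post-emergence spray of water-dispersed active from 5% emulsion concentrates. Pots held loamy sand with ~3.0% humus, at 10-25 °C or 20-35 °C depending on species.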

Echinochloa crus-galli [2] = test: Greenhouse post-emergence (POST) herbicidal test on ECHCG; conditions: Echinochloa crus-galli, post-emergence; for inhibition at 4 g/ha: use rate 4 gai/ha
Method in brief: as §3

## COc1c(Br)cc(F)c(F)c1Nc1nc(N)nc(C(C)(C)F)n1 [Compound I-2]
Echinochloa crus-galli [1]
  pest or weed control at 2 g/ha: 55%
Euphorbia heterophylla; 432 h, PRE, EPHHL, I-2 solo 2 gai/ha, 18 DAT
  pest or weed control at 2 g/ha: 10%
Euphorbia heterophylla; 432 h, PRE, EPHHL, I-2 solo 8 gai/ha, 18 DAT
  pest or weed control at 8 g/ha: 35%
Euphorbia heterophylla; 480 h, EPHHL PRE, 20 DAT, use rate 8 gai/ha, read-out: % activity
  inhibition at 8 g/ha: 10%
Euphorbia heterophylla; 480 h, PRE, 2 gai/ha, 20 DAT
  pest or weed control at 2 g/ha: 10%
Euphorbia heterophylla; 480 h, PRE, 8 gai/ha, 20 DAT
  pest or weed control at 8 g/ha: 10%
Euphorbia heterophylla; 480 h, PRE, EPHHL, 2 gai/ha, 20 DAT, read-out: % activity solo application
  inhibition at 2 g/ha: 0%
Euphorbia heterophylla; 480 h, PRE, EPHHL, 8 gai/ha, 20 DAT, read-out: % activity solo application
  inhibition at 8 g/ha: 15%
Euphorbia heterophylla; 480 h, PRE, EPHHL, use rate 2 gai/ha, 20 DAT, read-out: solo application % activity
  inhibition at 2 g/ha: 0%
Euphorbia heterophylla; 480 h, PRE, EPHHL, use rate 8 gai/ha, 20 DAT, read-out: solo application % activity
  inhibition at 8 g/ha: 15%
Geranium pusillum; 480 h, PRE, GERPU, 20 DAT
  inhibition at 8 g/ha: 80%
Geranium pusillum; GERPU PRE
  inhibition at 8 g/ha: 0%
Geranium pusillum; PRE, GERPU
  inhibition at 8 g/ha: 0%
Lolium multiflorum; LOLMU PRE, use rate 2 gai/ha
  % activity: 30%
Lolium multiflorum; Lolium multiflorum, pre-emergence, 432 h, PRE, LOLMU, I-2 solo 2 gai/ha, 18 DAT, read-out: % activity
  pest or weed control at 2 g/ha: 0%
Lolium multiflorum; Lolium multiflorum, pre-emergence, 432 h, PRE, LOLMU, I-2 solo 8 gai/ha, 18 DAT
  pest or weed control at 8 g/ha: 30%
Lolium multiflorum; Lolium multiflorum, pre-emergence, 480 h, LOLMU PRE, 20 DAT, use rate 2 gai/ha, read-out: % activity
  inhibition at 2 g/ha: 10%
Lolium multiflorum; Lolium multiflorum, pre-emergence, 480 h, LOLMU PRE, 20 DAT, use rate 8 gai/ha, read-out: % activity
  inhibition at 8 g/ha: 15%
Lolium multiflorum; Lolium multiflorum, pre-emergence, 480 h, PRE, 2 gai/ha, 20 DAT, read-out: % activity
  pest or weed control at 2 g/ha: 10%
Lolium multiflorum; Lolium multiflorum, pre-emergence, 480 h, PRE, LOLMU, 2 gai/ha, 20 DAT, read-out: % activity solo application
  inhibition at 2 g/ha: 15%
Lolium multiflorum; Lolium multiflorum, pre-emergence, 480 h, PRE, LOLMU, 8 gai/ha, 20 DAT, read-out: % activity solo application
  inhibition at 8 g/ha: 90%
Lolium multiflorum; Lolium multiflorum, pre-emergence, 480 h, PRE, LOLMU, use rate 2 gai/ha, 20 DAT, read-out: solo application % activity
  inhibition at 2 g/ha: 15%
Lolium multiflorum; Lolium multiflorum, pre-emergence, 480 h, PRE, use rate 2 gai/ha, 20 DAT, read-out: % activity
  inhibition at 2 g/ha: 20%
Lolium multiflorum; Lolium multiflorum, pre-emergence, 480 h, PRE, use rate 8 gai/ha, 20 DAT, read-out: % activity
  inhibition at 8 g/ha: 85%
Lolium multiflorum; Lolium multiflorum, pre-emergence, LOLMU PRE, use rate 2 gai/ha, read-out: % activity
  inhibition at 2 g/ha: 35%
Lolium multiflorum; Lolium multiflorum, pre-emergence, PRE, LOLMU, use rate 2 gai/ha, read-out: % activity
  inhibition at 2 g/ha: 40%
Lolium multiflorum; Lolium multiflorum, pre-emergence, PRE, LOLMU, use rate 8 gai/ha, read-out: % activity
  inhibition at 8 g/ha: 60%
Setaria viridis; 432 h, PRE, SETVI, I-2 solo 2 gai/ha, 18 DAT
  pest or weed control at 2 g/ha: 70%
Setaria viridis; 480 h, PRE, 2 gai/ha, 20 DAT
  pest or weed control at 2 g/ha: 10%
Setaria viridis; 480 h, PRE, SETVI, 2 gai/ha, 20 DAT, read-out: % activity solo application
  inhibition at 2 g/ha: 25%
Setaria viridis; 480 h, SETVI PRE, 20 DAT, use rate 2 gai/ha, read-out: % activity
  inhibition at 2 g/ha: 10%
Setaria viridis; PRE, SETVI, use rate 2 gai/ha, read-out: % activity
  inhibition at 2 g/ha: 10%
Setaria viridis; PRE, SETVI, use rate 4 gai/ha
  inhibition at 4 g/ha: 30%
Amaranthus retroflexus; 432 h, POST, AMARE, I-2 solo 2 gai/ha, 18 DAT
  pest or weed control at 2 g/ha: 55%
Amaranthus retroflexus; 432 h, POST, AMARE, I-2 solo 8 gai/ha, 18 DAT
  pest or weed control at 8 g/ha: 70%
Amaranthus retroflexus; 480 h, AMARE POST, 20 DAT, use rate 2 gai/ha, read-out: % activity
  inhibition at 2 g/ha: 65%
Amaranthus retroflexus; 480 h, AMARE POST, 20 DAT, use rate 8 gai/ha, read-out: % activity
  inhibition at 8 g/ha: 65%
Amaranthus retroflexus; 480 h, POST, 8 gai/ha, 20 DAT
  pest or weed control at 8 g/ha: 65%
Amaranthus retroflexus; 480 h, POST, AMARE, 2 gai/ha, 20 DAT, read-out: % activity solo application
  inhibition at 2 g/ha: 40%
Amaranthus retroflexus; 480 h, POST, AMARE, 8 gai/ha, 20 DAT, read-out: % activity solo application
  inhibition at 8 g/ha: 75%
Amaranthus retroflexus; 480 h, POST, AMARE, use rate 2 gai/ha, 20 DAT, read-out: solo application % activity
  inhibition at 2 g/ha: 40%
Amaranthus retroflexus; 480 h, POST, use rate 2 gai/ha, 20 DAT, read-out: % activity
  inhibition at 2 g/ha: 75%
Echinochloa crus-galli [2]; 432 h, POST, ECHCG, I-2 solo 2 gai/ha, 18 DAT
  pest or weed control at 2 g/ha: 0%
Echinochloa crus-galli [2]; 432 h, POST, ECHCG, I-2 solo 8 gai/ha, 18 DAT
  pest or weed control at 8 g/ha: 15%
Echinochloa crus-galli [2]; 480 h, ECHCG POST, 20 DAT, use rate 2 gai/ha, read-out: % activity
  inhibition at 2 g/ha: 0%
Echinochloa crus-galli [2]; 480 h, POST, ECHCG, 20 DAT
  inhibition at 4 g/ha: 0%
Echinochloa crus-galli [2]; POST, ECHCG
  inhibition at 4 g/ha: 25%
